Reference: the NIST ThermoML archive (doi:10.1021/acs.jced.9b00525)
± gives the expanded uncertainty stated by the source.

Details: Surface laser light scattering (SLLS); for viscosity: Liquid

SMILES | surface tension liquid-gas (293.15 K) | viscosity (293.15 K) | surface tension liquid-gas (303.15 K) | viscosity (303.15 K) | surface tension liquid-gas (313.15 K) | viscosity (313.15 K) | surface tension liquid-gas (323.15 K) | viscosity (323.15 K) | surface tension liquid-gas (348.15 K) | viscosity (348.15 K) | surface tension liquid-gas (373.15 K) | viscosity (373.15 K) | surface tension liquid-gas (398.15 K) | viscosity (398.15 K) | surface tension liquid-gas (423.15 K) | viscosity (423.15 K) | surface tension liquid-gas (448.15 K) | viscosity (448.15 K) | surface tension liquid-gas (473.15 K) | viscosity (473.15 K) | further results
CCCCCCCCCCCCCCCC [hexadecane] | 27.38 ± 0.64 mN/m | 3.486 ± 0.1 mPa·s | 26.6 ± 0.7 mN/m | 2.772 ± 0.095 mPa·s | 25.56 ± 0.31 mN/m | 2.261 ± 0.081 mPa·s | 24.28 ± 0.41 mN/m | 1.84 ± 0.061 mPa·s | 22.19 ± 0.31 mN/m | 1.236 ± 0.047 mPa·s | 20.31 ± 0.23 mN/m | 0.8927 ± 0.03 mPa·s | 18.54 ± 0.14 mN/m | 0.6788 ± 0.024 mPa·s | 16.69 ± 0.25 mN/m | 0.5351 ± 0.02 mPa·s | 15.09 ± 0.14 mN/m | 0.4256 ± 0.018 mPa·s | 13.26 ± 0.21 mN/m | 0.344 ± 0.016 mPa·s | surface tension liquid-gas (498.15 K): 11.46 ± 0.19 mN/m; viscosity (498.15 K): 0.2862 ± 0.015 mPa·s; surface tension liquid-gas (523.15 K): 9.72 ± 0.28 mN/m; viscosity (523.15 K): 0.236 ± 0.013 mPa·s; surface tension liquid-gas (548.15 K): 8.25 ± 0.22 mN/m; viscosity (548.15 K): 0.1937 ± 0.013 mPa·s; surface tension liquid-gas (573.15 K): 7 ± 0.29 mN/m; viscosity (573.15 K): 0.1705 ± 0.012 mPa·s
CCCCCCCC [octane] | 21.31 ± 0.24 mN/m | 0.5523 ± 0.021 mPa·s | 20.53 ± 0.23 mN/m | 0.4828 ± 0.019 mPa·s | 19.45 ± 0.22 mN/m | 0.432 ± 0.018 mPa·s | 18.64 ± 0.21 mN/m | 0.387 ± 0.017 mPa·s | 16.37 ± 0.21 mN/m | 0.3079 ± 0.015 mPa·s | 14 ± 0.14 mN/m | 0.2487 ± 0.014 mPa·s | 11.9 ± 0.12 mN/m | 0.2028 ± 0.013 mPa·s | 9.81 ± 0.15 mN/m | 0.1665 ± 0.012 mPa·s | 7.88 ± 0.07 mN/m | 0.1393 ± 0.011 mPa·s | 5.82 ± 0.1 mN/m | 0.1168 ± 0.01 mPa·s | surface tension liquid-gas (283.15 K): 22.25 ± 0.19 mN/m; viscosity (283.15 K): 0.6247 ± 0.023 mPa·s; surface tension liquid-gas (498.15 K): 4 ± 0.13 mN/m; viscosity (498.15 K): 0.0947 ± 0.01 mPa·s; surface tension liquid-gas (523.15 K): 2.32 ± 0.06 mN/m; viscosity (523.15 K): 0.0755 ± 0.0095 mPa·s
CCCCCC [hexane] | 18.22 ± 0.17 mN/m | 0.3127 ± 0.015 mPa·s | 17.34 ± 0.19 mN/m | 0.2809 ± 0.014 mPa·s | 16.22 ± 0.21 mN/m | 0.2546 ± 0.014 mPa·s | 15.31 ± 0.14 mN/m | 0.234 ± 0.013 mPa·s | 12.94 ± 0.12 mN/m | 0.1905 ± 0.012 mPa·s | 10.53 ± 0.1 mN/m | 0.155 ± 0.011 mPa·s | 8.21 ± 0.08 mN/m | 0.1268 ± 0.011 mPa·s | 5.98 ± 0.06 mN/m | 0.1026 ± 0.01 mPa·s | 3.75 ± 0.07 mN/m | 0.0837 ± 0.0097 mPa·s | 1.89 ± 0.03 mN/m | 0.0655 ± 0.0093 mPa·s | surface tension liquid-gas (283.15 K): 19.28 ± 0.22 mN/m; viscosity (283.15 K): 0.3495 ± 0.016 mPa·s
CCCCCCCCCC [decane] | 23.05 ± 0.57 mN/m | 0.9005 ± 0.029 mPa·s | 22.39 ± 0.48 mN/m | 0.79 ± 0.026 mPa·s | 21.43 ± 0.46 mN/m | 0.6924 ± 0.025 mPa·s | 20.61 ± 0.44 mN/m | 0.6091 ± 0.022 mPa·s | 18.75 ± 0.39 mN/m | 0.4636 ± 0.019 mPa·s | 16.52 ± 0.36 mN/m | 0.3614 ± 0.016 mPa·s | 14.38 ± 0.31 mN/m | 0.2895 ± 0.015 mPa·s | 12.4 ± 0.32 mN/m | 0.2403 ± 0.013 mPa·s | 10.29 ± 0.22 mN/m | 0.1978 ± 0.012 mPa·s | 8.52 ± 0.23 mN/m | 0.1677 ± 0.012 mPa·s | surface tension liquid-gas (283.15 K): 23.94 ± 0.52 mN/m; viscosity (283.15 K): 1.077 ± 0.035 mPa·s; surface tension liquid-gas (498.15 K): 6.58 ± 0.16 mN/m; viscosity (498.15 K): 0.1366 ± 0.011 mPa·s; surface tension liquid-gas (523.15 K): 4.97 ± 0.12 mN/m; viscosity (523.15 K): 0.1138 ± 0.01 mPa·s; surface tension liquid-gas (548.15 K): 3.43 ± 0.1 mN/m; viscosity (548.15 K): 0.0974 ± 0.01 mPa·s; surface tension liquid-gas (573.15 K): 1.94 ± 0.09 mN/m; viscosity (573.15 K): 0.0762 ± 0.0098 mPa·s
